The target of assay [1] is Alpha-1A adrenergic receptor (Homo sapiens) (UniProt P35348). As to the kind of experiment: Binding affinity to alpha1A adrenoceptor (unknown origin) at 10 uM.
For assay [2], the target named is Beta-3 adrenergic receptor (Homo sapiens) (UniProt P13945). Kind of assay: Binding affinity to beta3 adrenoceptor (unknown origin) at 10 uM.
Assay [3] addresses 5-hydroxytryptamine receptor 1E (Homo sapiens) (UniProt P28566). Kind of assay: Displacement of [3H]5HT from 5HT1E receptor (unknown origin) at 10 uM. Background: Loss of bound radioactivity is the signal in a displacement assay; it reports binding, not function.
Assay [4] concerns the target Sigma non-opioid intracellular receptor 1 (Homo sapiens) (UniProt Q99720). Kind of assay: Binding affinity to sigma-1 receptor (unknown origin) at 10 uM.
In assay [5] the target is D(4) dopamine receptor (Homo sapiens) (UniProt P21917). Kind of assay: Binding affinity to dopamine D4 receptor (unknown origin) at 10 uM.
Chain of D(4) dopamine receptor (Homo sapiens) (P21917 whole entry): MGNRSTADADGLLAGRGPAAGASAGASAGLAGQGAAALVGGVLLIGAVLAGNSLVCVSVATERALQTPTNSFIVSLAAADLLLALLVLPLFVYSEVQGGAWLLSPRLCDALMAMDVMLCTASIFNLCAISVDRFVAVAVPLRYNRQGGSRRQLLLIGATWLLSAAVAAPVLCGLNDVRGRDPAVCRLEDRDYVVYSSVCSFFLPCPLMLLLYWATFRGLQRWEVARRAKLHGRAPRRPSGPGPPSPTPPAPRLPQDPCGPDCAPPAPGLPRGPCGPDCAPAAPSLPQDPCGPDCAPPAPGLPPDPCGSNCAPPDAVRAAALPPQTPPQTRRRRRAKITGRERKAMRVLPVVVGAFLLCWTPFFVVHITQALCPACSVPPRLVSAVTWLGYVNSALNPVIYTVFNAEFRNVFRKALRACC
The target in assay [6] is Alpha-2C adrenergic receptor (Homo sapiens, UniProt P18825). Kind of assay: Binding affinity to alpha2C adrenoceptor (unknown origin).
Chain of Alpha-2C adrenergic receptor (P18825 whole entry): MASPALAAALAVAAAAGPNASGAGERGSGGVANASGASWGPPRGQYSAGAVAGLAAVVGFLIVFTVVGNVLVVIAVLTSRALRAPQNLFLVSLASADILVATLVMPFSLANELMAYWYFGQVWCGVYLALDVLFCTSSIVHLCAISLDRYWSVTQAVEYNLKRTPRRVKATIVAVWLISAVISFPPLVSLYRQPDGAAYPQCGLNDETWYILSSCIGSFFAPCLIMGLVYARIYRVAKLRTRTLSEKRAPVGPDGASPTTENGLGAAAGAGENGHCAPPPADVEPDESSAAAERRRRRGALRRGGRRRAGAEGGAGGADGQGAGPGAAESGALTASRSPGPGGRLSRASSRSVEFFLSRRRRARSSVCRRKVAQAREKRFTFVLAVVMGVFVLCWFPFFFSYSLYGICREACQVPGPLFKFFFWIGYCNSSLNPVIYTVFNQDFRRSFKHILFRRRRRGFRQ
Assay [7] addresses Alpha-1D adrenergic receptor (Homo sapiens) (UniProt P25100). As to the kind of experiment: Binding affinity to alpha1D adrenoceptor (unknown origin) at 10 uM.
In assay [8] the target is Histamine H2 receptor (Homo sapiens) (UniProt P25021). As to the kind of experiment: Binding affinity to histamine H2 receptor (unknown origin) at 10 uM.
Chain of Histamine H2 receptor (Homo sapiens) (P25021 whole entry): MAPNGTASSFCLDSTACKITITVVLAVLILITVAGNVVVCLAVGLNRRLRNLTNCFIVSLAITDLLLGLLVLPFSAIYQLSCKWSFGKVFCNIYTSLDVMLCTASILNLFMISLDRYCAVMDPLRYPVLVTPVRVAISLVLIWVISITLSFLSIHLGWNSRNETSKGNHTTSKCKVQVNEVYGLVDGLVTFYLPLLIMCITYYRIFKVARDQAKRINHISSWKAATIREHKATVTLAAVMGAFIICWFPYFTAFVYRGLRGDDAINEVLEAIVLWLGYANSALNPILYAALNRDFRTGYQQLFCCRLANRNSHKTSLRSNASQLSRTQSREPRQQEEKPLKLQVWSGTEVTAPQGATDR
Assay [9] deals with 5-hydroxytryptamine receptor 2B (Homo sapiens, UniProt P41595). As to the kind of experiment: Displacement of [3H]LSD from 5HT2B receptor (unknown origin).
Chain of 5-hydroxytryptamine receptor 2B (P41595 whole entry): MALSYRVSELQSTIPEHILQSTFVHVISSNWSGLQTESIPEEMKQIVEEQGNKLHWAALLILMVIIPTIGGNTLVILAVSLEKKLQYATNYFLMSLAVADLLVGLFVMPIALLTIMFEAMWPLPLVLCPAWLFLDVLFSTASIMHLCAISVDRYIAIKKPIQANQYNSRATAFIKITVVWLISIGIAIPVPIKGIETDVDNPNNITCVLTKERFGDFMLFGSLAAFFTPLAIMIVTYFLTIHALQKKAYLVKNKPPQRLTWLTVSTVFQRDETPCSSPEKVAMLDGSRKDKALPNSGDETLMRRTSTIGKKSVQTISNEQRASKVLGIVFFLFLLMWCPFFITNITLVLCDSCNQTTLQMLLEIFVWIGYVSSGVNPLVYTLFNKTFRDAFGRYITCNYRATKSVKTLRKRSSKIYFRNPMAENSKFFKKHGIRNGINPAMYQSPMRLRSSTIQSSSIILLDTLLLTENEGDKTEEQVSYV
Assay [10] deals with Kappa-type opioid receptor (Homo sapiens) (UniProt P41145). Kind of assay: Binding affinity to KOR (unknown origin) at 10 uM.
Chain of Kappa-type opioid receptor (Homo sapiens) (P41145 whole entry): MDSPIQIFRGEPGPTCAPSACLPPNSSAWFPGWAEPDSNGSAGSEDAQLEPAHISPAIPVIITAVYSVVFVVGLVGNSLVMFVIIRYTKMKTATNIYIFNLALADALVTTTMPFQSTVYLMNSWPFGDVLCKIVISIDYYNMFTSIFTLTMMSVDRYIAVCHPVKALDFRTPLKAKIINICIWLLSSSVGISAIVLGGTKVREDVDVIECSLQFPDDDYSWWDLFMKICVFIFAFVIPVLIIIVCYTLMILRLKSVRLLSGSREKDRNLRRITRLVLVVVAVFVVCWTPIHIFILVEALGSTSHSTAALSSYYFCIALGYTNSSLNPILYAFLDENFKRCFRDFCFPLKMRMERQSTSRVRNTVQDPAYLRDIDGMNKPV
Assay [11] deals with Sigma 2 receptor. As to the kind of experiment: Binding affinity to sigma-2 receptor (unknown origin) at 10 uM. As to conditions: Homo sapiens.
For assay [12], the target named is T1, 5-hydroxytryptamine receptor 3A (Homo sapiens) (UniProt P46098).
T1 sequence (whole entry): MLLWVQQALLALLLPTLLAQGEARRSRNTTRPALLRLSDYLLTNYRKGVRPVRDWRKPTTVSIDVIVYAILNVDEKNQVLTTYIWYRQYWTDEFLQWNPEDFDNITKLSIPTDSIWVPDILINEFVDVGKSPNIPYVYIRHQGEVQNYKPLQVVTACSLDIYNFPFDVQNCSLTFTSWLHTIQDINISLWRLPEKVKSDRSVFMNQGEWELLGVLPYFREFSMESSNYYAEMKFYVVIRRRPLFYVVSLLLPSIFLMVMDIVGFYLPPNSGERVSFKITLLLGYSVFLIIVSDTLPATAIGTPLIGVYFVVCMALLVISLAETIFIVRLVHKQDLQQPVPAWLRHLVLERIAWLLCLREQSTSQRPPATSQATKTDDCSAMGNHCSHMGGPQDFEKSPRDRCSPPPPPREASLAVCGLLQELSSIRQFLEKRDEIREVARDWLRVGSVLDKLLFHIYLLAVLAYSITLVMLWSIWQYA
Kind of assay: Displacement of [3H]LY278584 from 5HT3 receptor (unknown origin) at 10 uM.

In assay [13] the target is 5-hydroxytryptamine receptor 1D (Homo sapiens) (UniProt P28221). As to the kind of experiment: Displacement of [3H]GR125743 from 5HT1D receptor (unknown origin) at 10 uM.
The target of assay [14] is Alpha-2A adrenergic receptor (Homo sapiens, UniProt P08913). Kind of assay: Binding affinity to alpha2A adrenoceptor (unknown origin).
Chain of Alpha-2A adrenergic receptor (P08913 whole entry): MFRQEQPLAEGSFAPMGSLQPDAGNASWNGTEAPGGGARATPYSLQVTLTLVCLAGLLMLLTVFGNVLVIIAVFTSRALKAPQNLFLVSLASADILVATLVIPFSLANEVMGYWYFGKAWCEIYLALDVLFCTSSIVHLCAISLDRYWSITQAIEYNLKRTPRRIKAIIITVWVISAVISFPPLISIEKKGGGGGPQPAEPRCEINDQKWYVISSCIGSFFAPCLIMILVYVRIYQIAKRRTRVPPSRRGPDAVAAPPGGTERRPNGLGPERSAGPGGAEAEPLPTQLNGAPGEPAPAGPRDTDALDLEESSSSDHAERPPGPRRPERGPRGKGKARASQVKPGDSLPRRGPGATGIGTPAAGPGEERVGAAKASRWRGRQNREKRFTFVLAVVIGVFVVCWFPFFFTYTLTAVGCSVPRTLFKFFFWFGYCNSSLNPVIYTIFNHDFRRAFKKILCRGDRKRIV
The target in assay [15] is 5-hydroxytryptamine receptor 6 (Homo sapiens, UniProt P50406). Kind of assay: Binding affinity to 5HT6 receptor (unknown origin).
In assay [16] the target is Histamine H1 receptor (Homo sapiens) (UniProt P35367). Kind of assay: Binding affinity to histamine H1 receptor (unknown origin) at 10 uM.
Chain of Histamine H1 receptor (Homo sapiens) (P35367 whole entry): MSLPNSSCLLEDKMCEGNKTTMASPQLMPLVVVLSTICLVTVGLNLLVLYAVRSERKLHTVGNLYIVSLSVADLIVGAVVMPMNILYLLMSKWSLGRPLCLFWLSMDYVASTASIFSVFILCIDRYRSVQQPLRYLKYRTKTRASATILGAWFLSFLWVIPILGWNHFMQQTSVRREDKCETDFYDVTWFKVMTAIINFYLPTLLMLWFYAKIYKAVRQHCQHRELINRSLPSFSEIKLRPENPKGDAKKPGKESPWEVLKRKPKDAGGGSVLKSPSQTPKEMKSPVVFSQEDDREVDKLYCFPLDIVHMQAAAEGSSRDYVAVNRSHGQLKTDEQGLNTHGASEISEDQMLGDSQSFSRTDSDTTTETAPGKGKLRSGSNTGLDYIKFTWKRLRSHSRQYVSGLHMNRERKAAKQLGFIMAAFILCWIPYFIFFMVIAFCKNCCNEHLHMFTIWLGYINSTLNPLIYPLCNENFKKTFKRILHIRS

Molecules are shown by their SMILES.

Chain of Alpha-1D adrenergic receptor (Homo sapiens) (P25100 whole entry): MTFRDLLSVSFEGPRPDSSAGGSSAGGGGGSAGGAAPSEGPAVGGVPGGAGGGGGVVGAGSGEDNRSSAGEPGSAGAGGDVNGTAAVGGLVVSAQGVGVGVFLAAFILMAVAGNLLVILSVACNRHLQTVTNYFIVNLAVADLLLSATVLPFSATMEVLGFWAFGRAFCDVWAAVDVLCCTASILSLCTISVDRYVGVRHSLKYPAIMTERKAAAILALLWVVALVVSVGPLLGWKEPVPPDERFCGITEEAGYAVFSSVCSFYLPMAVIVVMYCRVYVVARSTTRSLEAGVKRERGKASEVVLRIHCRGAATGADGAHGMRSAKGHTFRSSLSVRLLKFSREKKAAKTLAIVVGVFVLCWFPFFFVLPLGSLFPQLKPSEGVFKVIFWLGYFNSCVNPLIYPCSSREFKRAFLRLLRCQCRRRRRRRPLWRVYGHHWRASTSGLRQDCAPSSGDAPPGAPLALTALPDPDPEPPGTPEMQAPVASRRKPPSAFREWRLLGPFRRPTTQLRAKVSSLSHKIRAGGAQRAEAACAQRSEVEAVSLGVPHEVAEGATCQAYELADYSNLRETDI
Chain of Sigma non-opioid intracellular receptor 1 (Homo sapiens) (Q99720 whole entry): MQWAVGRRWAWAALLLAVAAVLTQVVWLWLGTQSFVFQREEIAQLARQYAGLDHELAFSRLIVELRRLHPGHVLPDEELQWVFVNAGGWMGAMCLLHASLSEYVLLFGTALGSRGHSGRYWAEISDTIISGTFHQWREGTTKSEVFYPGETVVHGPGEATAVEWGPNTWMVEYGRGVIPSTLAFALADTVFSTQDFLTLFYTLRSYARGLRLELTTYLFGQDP
Chain of 5-hydroxytryptamine receptor 1E (Homo sapiens) (P28566 whole entry): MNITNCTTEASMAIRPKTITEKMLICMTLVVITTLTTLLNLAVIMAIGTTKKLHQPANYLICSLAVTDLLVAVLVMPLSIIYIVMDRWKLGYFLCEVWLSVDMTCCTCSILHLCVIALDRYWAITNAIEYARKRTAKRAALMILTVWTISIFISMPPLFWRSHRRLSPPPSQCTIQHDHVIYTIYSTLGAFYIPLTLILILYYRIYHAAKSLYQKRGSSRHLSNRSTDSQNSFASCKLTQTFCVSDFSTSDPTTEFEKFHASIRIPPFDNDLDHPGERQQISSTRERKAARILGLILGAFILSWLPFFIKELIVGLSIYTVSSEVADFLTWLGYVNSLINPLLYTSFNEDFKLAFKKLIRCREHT
Chain of Beta-3 adrenergic receptor (Homo sapiens) (P13945 whole entry, looked up): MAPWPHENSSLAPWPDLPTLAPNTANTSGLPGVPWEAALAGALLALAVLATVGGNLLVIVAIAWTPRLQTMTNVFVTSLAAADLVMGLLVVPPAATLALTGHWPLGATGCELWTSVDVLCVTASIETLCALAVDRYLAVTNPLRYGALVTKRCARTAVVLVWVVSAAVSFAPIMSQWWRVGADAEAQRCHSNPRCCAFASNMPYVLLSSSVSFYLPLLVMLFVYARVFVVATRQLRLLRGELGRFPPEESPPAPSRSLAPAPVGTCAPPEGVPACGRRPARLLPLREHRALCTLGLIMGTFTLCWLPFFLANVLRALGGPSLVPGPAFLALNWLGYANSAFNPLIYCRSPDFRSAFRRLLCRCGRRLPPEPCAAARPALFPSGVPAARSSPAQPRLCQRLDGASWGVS

Usually inhibition stands for the percentage by which the read-out fell short of the control. Low values mean a weak effect, high ones a strong effect. Usually Ki stands for the equilibrium dissociation constant of an inhibitor or competing ligand from its target. The low end stands for higher affinity, the high end for lower affinity. For `COc1cc2c3c(c1OC)-c1cc4c(cc1CC3N(C)CC2c1ccccc1)OCO4` (stereo unspecified), the inhibition in assay [1] is less than 50%; in assay [2], less than 50%; in [3], 10.1%; in [4] it was less than 50%; in assay [5] it was less than 50%; in [7], less than 50%. Further, the inhibition was less than 50% in assay [8]; less than 50% in [10]; less than 50% in [11]; 8% in assay [12]; 34.5% in assay [13]; less than 50% in [16]. For the same compound, the Ki came to 433 nM in [6], 96 nM in assay [9], 719 nM in assay [14] and 627 nM in assay [15].

Source of the values: ChEMBL document CHEMBL3608284, “C4 phenyl aporphines with selective h5-HT(2B) receptor affinity” (Bioorg Med Chem Lett, 2015).
